Data taken from patent US8603806B2, “Materials and methods for cell-based assays” (The Ohio State Universtiy Research Foundation, priority 2005, dated 2013).
pIC50: −log10 of the molar value. Values after ≈ are worked out from the molar mass of the structure shown. “Also recorded” adds a separate entry of the source. Where two headings read alike, the source gives them in different places.

What was measured:
ES-GFP cells [1] = assay: Effect of fibronectin coating of PET matrix on ES-GFP cell growth; format: cell-based
Experimental: Similarly, ES-GFP cells were used to study the effects of fibronectin coating of the PET matrix on cell growth. Fibronectin is involved in many cellular processes, one of which is to serve as a general cell adhesion molecule to help cells anchor onto proteoglycan or collagen substrates. Fibronectin is a commonly used extracellular matrix protein to enhance cell adhesion on the tissue scaffold. PET matrices were soaked in 10 μg/ml fibronectin (Sigma Chemical Company, St. Louis, Mo.) for 12 hours before use. The fibronectin-coated matrices were then placed in the growth medium and seeded with ES-GFP cells from the top of the scaffolds. […] Also, cells cultured in the fibronectin-coated matrix reached a maximum fluorescence intensity of 4000 RFU that was ˜2.5 times of that without fibronectin coating at 128 h. […] Cell spreading can also stimulate cell proliferation and contributes to uniform cell distribution in the 3-D matrix, which in turn allowed more light emission from the matrix. It is noted that cells developed different morphologies in these two matrices, with large aggregates formed in the matrix without fibronectin coating (FIG. 9D). The formation of large cell aggregates could add additional mass transfer limitation and further reduce cell growth. The adhesion of cells to PET fibers is important to determine the cell growth in the 3-D matrix.

ES cells [2] = assay: 3-D cytotoxicity (proliferation) assay, ES-GFP cells in PET scaffolds, low density; format: cell-based; conditions: for IC50: read-out: 3-D cultures Ig50; for Ig50 in 2-D as times of Ig50 in 3-D: ratio 2-D/3-D
Experimental: For the 3-D cytotoxicity assay, 25000 cells in 25 μl medium were seeded into each PET scaffold. After 6 h incubation to allow cell attachment, 180 μl medium were added to each well and incubated for another 18 h before transferring the seeded matrix to the center of the microbioreactor chamber containing 3 ml of the ES medium on the modified 96-well plate. The plates were then stacked onto a rotational shaker and put into a 37° C. CO2 incubator. The culture fluorescence was measured twice per day with a Cytofluor Series 4000 plate reader. Fluorescence signals from live cells were calculated as the values from the central well of the bioreactor minus the background from the surrounding medium and scaffold.
(§1) With the exponential-phase specific growth rate data, the cytotoxicity of various chemicals can be better evaluated by their Ig50 values defined as the concentration of the chemical causing 50% reduction in the exponential-phase specific cell growth rate.

ES cells [3] = assay: 3-D high-density ES tissue constructs cytotoxicity; format: cell-based; conditions: for Extent of cell kill: 3-D high-density, at maximum dose; for EC50: 3-D high-density cell cultures, 50% of maximum fluorescence reduction, exposure four or six days after seeding; for Rf (resistance factor): ratio between EC50 and Ig50
From the text: The effects of various drugs on ES cells grown in 3-D after reaching a high cell density (exposure four or six days after seeding the matrices) were studied and the results are shown in FIG. 14. EC50 (the concentration required for obtaining 50% of a maximum effect) is used to evaluate a drug's cytotoxicity effect on a high-density 3-D cell or tissue construct. Here, if the elimination of cells is considered as the maximum effect of a chemical, an EC50 is not always reached. […] For this case, the maximum effects were defined as the fluorescence reduction caused by the saturation concentration (DM and DPH) or a very high dose compared to doses used in 2-D assays (Penicillin G and 5-FU). In addition, it was also noticed that maximal effects changed along with time, so the time point with the largest value of the maximal effects was used for cytotoxicity definition. Rf (resistance factor) is defined as the ratio between EC50 and Ig50.

ES cells [4] = assay: 2-D cytotoxicity assay, ES-GFP cells in 96-well plates; format: cell-based; conditions: concentration causing 50% reduction in exponential-phase specific growth rate, drug added one day after inoculation; for IC50: read-out: 2-D cultures Ig50
Experimental: The 2-D cytotoxicity assay was performed in 96-well plates by inoculating 5000 cells into each well containing 150 μl of ES medium. The drug was added one day after inoculation. Fluorescent signals were measured twice per day in the culture plates. The fluorescence given by live cells was calculated as the signals obtained after replacing culture medium with the same volume of PBS minus the blanks.
as §1

HT-29-GFP [5] = system: HT-29-GFP
From the text: (§2) Colon cancer is the third most frequently occurring cancer in the US and causes large numbers of deaths, second only to lung cancer. Treatment of progressed colon cancer involves surgical extraction combining chemotherapy and immunotherapy. The survival rate of colon cancer patients is only 55% due to the low effectiveness of these therapies. […] Butyric acid is a biological response modifier (BRM) and it acts synergistically with 5-FU against colorectal cancers by decreasing thymidine kinase mRNA. As a BRM, it can also increase cell specific productivity at the expense of inhibiting cell growth. […] In this case, the cytotoxicity of a chemical in 3-D cultures was defined as a concentration range of the chemical.

HT-29-GFP [6] = assay: HT-29-GFP proliferation assay, 2-D with cell counting; format: cell-based; conditions: Homo sapiens, read-out: 2-D with cell counting (Ig50)
From the text: as §2

HT-29-GFP [7] = conditions: for times more resistance in tumor-like structure: compared with the results from 3-D proliferation assays (3-D low density cells); for time after drug adding at which fluorescence changed / effectiveness on high density colon cancer cells: tumor-like constructs
From the text: as §2
Gemcitabine is an S-phase specific drug.

embryonic stem cell [8] = conditions: embryotoxicity test previously reported; cited from earlier work
embryonic stem cell [9] = conditions: embryotoxicity test previously reported; cited from earlier work; remark: listed apart in the source
ES-GFP cells [10] = assay: Acute cytotoxicity live-cell kinetic assay, 3-D ES-GFP; format: cell-based; conditions: high density 3-D ES-GFP, 2000 RFU; different doses
Experimental: For the live-cell kinetic assays, acute cellular events can be easily characterized with online continuous fluorescence measurements without human intervention. The 3-D cell-based assay system was thus applied to test the response of ES-GFP cells to a surfactant, Triton X-100 (Sigma Chemical Company, St. Louis, Mo.). ES-GFP cells in the 3-D system were cultured to reach a high density with 2000 RFU fluorescence intensity. After applying different doses of Triton X-100, the culture plate was immediately put into the plate reader (Cytofluor Series 4000) at 37° C., with the cycle number set at 80 and cycle time at 3 min. The mixing time before each reading was 10 seconds. […] In general, increasing the surfactant concentration in the medium increased cell death, which followed a first order kinetics as indicated by the linear semilogarithmic plot (FIG. 10B). Triton X-100 is a non-ionic detergent commonly used to solubilize membrane proteins. The specific death rate kd at each Triton X-100 concentration can be estimated from the negative slope of the semi-log plots. […] The loss in the fluorescence signal for the control experiment without the surfactant was negligible and the slight decrease could be attributed to a slow increase in the medium pH outside the CO2 incubator. GFP fluorescence is marginally affected by the solution pH when it is in the neutral pH range.

HT-29 = assay: Perfusion culture of HT-29 in microfluidic bioreactor array; format: cell-based, human; conditions: 2 μg/ml fed continuously from beginning of perfusion; vs control without drug
Experimental: A human colon cancer cell line HT-29 (ATCC: HTB-38™) was maintained in Dulbecco's Modified Eagle's Medium (DMEM, Gibco) supplemented with 10% fetal bovine serum (FBS, Gibco) in a cell culture incubator at 37° C. with 5% CO2. […] Then cells were diluted and seeded in a 96 well plate at around 5 cells per well. One green fluorescent colony was isolated and expanded in the absence of selective pressure geneticin (G-418, Gibco). The stability of the transfected cell line was verified by FACSCalibur (B-D) (>97%) compared to the negative control.
Before cell culture, the PET matrices were cut to small square patches (2.5 mm×3 mm) and then soaked in water and sterilized in an autoclave at 121° C. for 15 min. […] Then each seeded scaffold was transferred gently to a new well on the same 384-well plate, which was followed by fluorescence intensity measurement in the microplate reader at 485 nm excitation and 535 nm emission. The scaffolds with similar fluorescence intensity were selected and transferred to the wells in the middle two rows of the microbioreactor array. […]
Four 10 mL, syringes were autoclaved and filled with the maintenance media, which were then seated on a syringe pump (PHD 2000, Harvard Apparatus). […] Cell proliferation was analyzed twice a day with the specific plate definition scheme in the microplate reader. […]

[11] = concentration causing 50% reduction in exponential-phase specific growth rate, drug added one day after seeding

Q: What does the source list for fibronectin?
A: specific growth rate (ES-GFP cells [1]; PET matrices soaked in 10 μg/ml fibronectin, without coating 0.0335): 0.0458 h⁻¹; maximum fluorescence intensity relative to that without fibronectin coating (ES-GFP cells [1]; at 128 h): ~2.5 times; maximum fluorescence intensity (ES-GFP cells [1]; fibronectin-coated matrix, 128 h): 4000 RFU; doubling time (ES-GFP cells [1]; with fibronectin coating, without coating 20.7): 15.1 h; enhancement of specific growth rate (ES-GFP cells [1]; with vs without fibronectin coating): 37%

Q: Which results are given for `C[C@@H]1C[C@H]2[C@@H]3CCC4=CC(=O)C=C[C@]4(C)[C@@]3(F)[C@@H](O)C[C@]2(C)[C@@]1(O)C(=O)CO` [DM, dexamethasone]?
A: IC50 (ES cells [2]; [11]): 11.5 µg/mL (≈ 29.3 µM); Ig50 in 2-D as times of Ig50 in 3-D (ES cells [2]): 3 times; Extent of cell kill (ES cells [3]): 80.9%; EC50 (ES cells [3]; 144 h, read-out: EC50): 65 µg/mL (≈ 166 µM); Rf (resistance factor) (ES cells [3]): 5.7; IC50 (ES cells [4]): 32 µg/mL (≈ 81.5 µM)

Q: For `O=C1NC(=O)C(c2ccccc2)(c2ccccc2)N1` [DPH, diphenylhydantoin], which IC50 (ES cells [2]; [11]) is on record?
A: The IC50 was 39 µg/mL (≈ 155 µM).

Q: What about the “Extent of cell kill” value (ES cells [3]) of the same molecule?
A: The value was 52.2%.

Q: And the EC50 (ES cells [3]; 144 h, read-out: EC50)?
A: Its EC50 is 600 µg/mL (≈ 2380 µM).

Q: What about the “Rf (resistance factor)” value (ES cells [3]) of the same molecule?
A: Its value is 15.4.

Q: And the IC50 (ES cells [4])?
A: The IC50 was 30 µg/mL (≈ 119 µM).

Q: With `CCCC(=O)[O-].[Na+]` [Sodium butyrate, sodium butyrate] as the molecule, how does the “3-D with fluorescence, cytotoxicity concentration” value (HT-29-GFP [5]; 3-D low density, lowest concentration causing significant difference of fluorescent kinetics vs control) read?
A: Its value is 2 to 8 mM.

Q: And the “2-D with fluorescence, cytotoxicity concentration” value (HT-29-GFP [5]; lowest concentration causing significant difference of fluorescent kinetics vs control)?
A: Its value is 8 to 32 mM.

Q: And the pIC50 (HT-29-GFP [6])?
A: The pIC50 was 2.70.

Q: What about the “times more resistance in tumor-like structure” value (“times more resistance” for short) (HT-29-GFP [7]) of the same molecule?
A: The value was “(about 10 times”.

Q: What about the “times more resistance” value (HT-29-GFP [7]; listed as sodium butyrate) of the same molecule?
A: Its value is 10 times.

Q: What about the “Tumor-like response assays, cytotoxicity concentration” value (HT-29-GFP [7]; drug added at high density) of the same molecule?
A: The value was 10 to 100 mM.

Q: What about the “time after drug adding at which fluorescence changed” value (HT-29-GFP [7]) of the same molecule?
A: The value was “changed one day”.

Q: What about the “time after drug adding at which fluorescence changed” value (HT-29-GFP [7]; listed as sodium butyrate) of the same molecule?
A: The value was “one”.

Q: For `CC1(C)S[C@@H]2[C@H](NC(=O)Cc3ccccc3)C(=O)N2[C@H]1C(=O)O` [Penicillin G, penicillin G], which “ZEBET IC50” value (embryonic stem cell [8]) is on record?
A: Its value is 2100 µg/mL.

Q: And the “ECVAM IC50” value (embryonic stem cell [9])?
A: The value was 2000 µg/mL.

Q: What about the “3-D cultures Ig50” value (ES cells [2]; [11]) of the same molecule?
A: Its value is 750 µg/mL.

Q: What about the “Ig50 in 2-D as times of Ig50 in 3-D” value (ES cells [2]) of the same molecule?
A: The value was 6 times.

Q: And the EC50 (ES cells [3])?
A: The EC50 was 23000 µg/mL (≈ 68800 µM).

Q: What about the “Extent of cell kill” value (ES cells [3]) of the same molecule?
A: The value was 62.3%.

Q: And the “Rf (resistance factor)” value (ES cells [3])?
A: The value was 30.7.

Q: What about the “2-D cultures Ig50” value (ES cells [4]) of the same molecule?
A: Its value is 4500 µg/mL.

Q: With Triton X-100 as the molecule, how does the “acute cellular response (loss in culture fluorescence)” value (ES-GFP cells [10]) read?
A: The value was “caused an acute cell death”.

Q: With `Nc1ccn([C@@H]2O[C@H](CO)[C@@H](O)C2(F)F)c(=O)n1` [Gemcitabine, gemcitabine] as the molecule, how does the “2-D with fluorescence, cytotoxicity concentration” value (HT-29-GFP [5]; human) read?
A: Its value is 0.000625 mM.

Q: And the “3-D with fluorescence, cytotoxicity concentration” value (HT-29-GFP [5]; human)?
A: The value was 1e-06 to 5e-06 mM.

Q: What about the pIC50 (HT-29-GFP [6]; HT-29-GFP 2-D) of the same molecule?
A: Its pIC50 is 8.30.

Q: What about the “times more resistance” value (HT-29-GFP [7]) of the same molecule?
A: The value was “(more than 1000 times”.

Q: What about the “Tumor-like response assays, cytotoxicity concentration” value (HT-29-GFP [7]; human) of the same molecule?
A: Its value is greater than 1 mM.

Q: And the “effectiveness on high density colon cancer cells” value (HT-29-GFP [7])?
A: Its value is “non-effective)”.

Q: What about the “effectiveness on high density colon cancer cells” value (HT-29-GFP [7]; listed as gemcitabine) of the same molecule?
A: The value was “totally resistant”.

Q: Which results are given for `O=c1[nH]cc(F)c(=O)[nH]1` [5-FU, 5-fluorouracil]?
A: ZEBET IC50 (embryonic stem cell [8]): 0.09 µg/mL; ECVAM IC50 (embryonic stem cell [9]): 0.065 µg/mL; 2-D with fluorescence, cytotoxicity concentration (HT-29-GFP [5]; human): 0.052 to 0.26 µg/mL; 3-D with fluorescence, cytotoxicity concentration (HT-29-GFP [5]; human): 0.26 to 1.3 µg/mL; IC50 (ES cells [2]; [11]): 0.035 µg/mL (≈ 0.269 µM); IC50 (HT-29-GFP [6]; HT-29-GFP 2-D): < 0.26 µg/mL; effect on ES tissue constructs (ES cells [3]; 100 μg/ml, 3-D high density): no significant effect; Extent of cell kill (ES cells [3]): 20%; Rf (resistance factor) (ES cells [3]): >1000; IC50 (ES cells [4]): 0.045 µg/mL (≈ 0.346 µM); effect on HT-29 proliferation in perfusion culture (HT-29): significantly reduced cell proliferation; also recorded: significantly inhibited; Tumor-like response assays, cytotoxicity concentration (HT-29-GFP [7]; human): 10 to 100 µg/mL
